From patent US11292781B2, “Pyrimidine tricyclic enone derivatives for inhibition of ROR-gamma and other uses” (REATA PHARMACEUTICALS, INC., priority 2016, dated 2022)

Experiments:
[1] = tested on: Nrf2 transcription factor (GST ARE luciferase reporter in AREc32 cells); assay: AREc32 luciferase reporter assay; assay type: cell-based, human; details: EC2×: concentration required to increase GST ARE luciferase reporter activity by 2-fold, 19 hours
Text: A. AREc32 Luciferase Reporter Assay The AREc32 luciferase reporter assay allows for quantitative assessment of the endogenous activity of the Nrf2 transcription factor in cultured mammalian cells. AREc32 cells are derived from MCF-7 human breast carcinoma cells that were stably transfected with a reporter construct that contains the firefly luciferase gene located downstream of eight copies of the rat GSTA2 antioxidant response element (ARE) sequence (Wang et al., 2006; CXR Biosciences). Active NRF2 binds to the ARE sequences and increases expression of the firefly luciferase gene. […] Luciferase activity was determined using the ONE-Glo Luciferase assay (Promega). The luminescence signal was measured on a BMG Pherastar microplate reader. The mean luminescence value from test compound-treated wells was normalized to that from DMSO-treated wells and was represented as fold-induction. Data were analyzed using GraphPad Prism version 6.00 for Windows, GraphPad Software, La Jolla Calif. USA. A non-linear regression curve with log (agonist) vs. response using a variable slope was used to fit the data. […] EC2× values were interpolated from the curve.

[2] = tested on: IL-17A levels in primary human CD4+ T cells differentiated into Th17 cells; assay: IL-17 release from differentiated primary human T-cells (IL-17A HTRF); assay type: cell-based; details: primary human CD4+ T cells, Th17 differentiation, 46-hour incubation; read-out: hIL17 IC50
Protocol: C. IL-17 Release from Differentiated Primary Human T-Cells and Cell Viability Primary human cryopreserved CD4+ T Cells (Lonza, donor #0000402103) were plated in Lymphocyte Growth Medium-3 (LGM-3, Lonza) according to the manufacturer's recommendations, and allowed to recover for approximately 3 hours at 37° C. with 5% CO2 in a humidified atmosphere. […] Triplicate wells were plated for each test condition. DMSO (final concentration ≤0.1%) was used as the vehicle. Immediately after plating, CD4+ T cells were activated by adding Dynabeads Human T-Activator CD3/CD28 (Life Technologies; bead-to-cell ratio of 1:2.5) and differentiated into Th17 cells by adding a mixture of the following cytokines: transforming growth factor-β (TGF-β, 5 ng/mL), IL-6 (20 ng/mL), IL-23 (20 ng/mL), and […] (10 ng/mL). Undifferentiated control cells received only cytokine IL-2 (50 ng/mL). All human recombinant cytokines were purchased from R&D Systems. Following a 46-hour incubation at 37° C. with 5% CO2 in a humidified atmosphere, the plates were centrifuged for 3 minutes at 250×g, and half of the supernatant was transferred to a new plate to be used in the IL-17A assay (see below). Cell viability was assessed in the original plate using the CyQuant Direct Assay (Life Technologies). CyQuant values from test compound samples were normalized to those from DMSO-treated samples. The concentration of IL-17A in the supernatant was measured using the Homogeneous Time-Resolved Fluorescence (HTRF) assay (Cisbio Bioassays) according to the manufacturer's protocol. The assay was performed at room temperature in low volume, solid white 384-well plates (Greiner Bio-One). […] A non-linear regression analysis with log (inhibitor) vs. normalized response using a variable slope was applied to fit the data and determine the IC50 values for inhibition of IL-17A levels and cell viability.

SMILES | HRF2 ARE 2× [1] [nM] | IC50 [2] [nM]
C[C@H]1C(=O)C(C#N)=C[C@@]2(C)c3nc(-c4ccnc5ccccc45)nc(OC4CCCCC4)c3CC[C@H]12 [T96] | 492 | 58
Cc1cc(-c2nc(-c3ccc(F)cc3)c3c(n2)[C@]2(C)C=C(C#N)C(=O)[C@H](C)[C@H]2CC3)c2ccccc2n1 [T109] | 251 | 18
Cc1cc(-c2nc(OC3CCC3)c3c(n2)[C@]2(C)C=C(C#N)C(=O)[C@H](C)[C@H]2CC3)c2ccccc2n1 [T110] | 317 | 37
C[C@H]1C(=O)C(C#N)=C[C@@]2(C)c3nc(-c4ccnc5ccccc45)nc(OC4CCC4)c3CC[C@H]12 [T94] | 321 | 58
Cc1cc(-c2nc(-c3ccccc3F)c3c(n2)[C@]2(C)C=C(C#N)C(=O)C(C)(C)[C@H]2CC3)c2ccccc2n1 [T119] | 351 | 37
C[C@H]1C(=O)C(C#N)=C[C@@]2(C)c3nc(-c4ccnc5ccccc45)nc(-c4cccc(-c5ccccc5)c4)c3CC[C@H]12 [T162] | 601 | 50
C[C@H]1C(=O)C(C#N)=C[C@@]2(C)c3nc(C4=CCCNC4)nc(-c4ccccc4)c3CC[C@H]12.Cl [T48] | 460 | 225
C[C@H]1C(=O)C(C#N)=C[C@@]2(C)c3nc(-c4ccncc4F)nc(-c4ccccc4F)c3CC[C@H]12 [T57] | 419 | 77
C[C@H]1C(=O)C(C#N)=C[C@@]2(C)c3nc(-c4ccnc5cc(F)ccc45)nc(-c4ccccc4F)c3CC[C@H]12 [T76] | 315 | 35
Cc1cc(-c2nc(-c3cccc(F)c3)c3c(n2)[C@]2(C)C=C(C#N)C(=O)[C@H](C)[C@H]2CC3)c2ccccc2n1 [T108] | 225 | 21
C[C@H]1C(=O)C(C#N)=C[C@@]2(C)c3nc(-c4ccc(C5CC5)nc4)nc(-c4ccccc4F)c3CC[C@H]12 [T140] | 451 | 26
C[C@H]1C(=O)C(C#N)=C[C@@]2(C)c3nc(-c4ccnc5ccccc45)nc(-c4ccco4)c3CC[C@H]12 [T102] | 287 | 153
C[C@H]1C(=O)C(C#N)=C[C@@]2(c3ccccc3)c3nc(-c4ccnc5ccccc45)nc(-c4ccccc4F)c3CC[C@H]12 [T148] | 1758 | 77
C[C@H]1C(=O)C(C#N)=C[C@@]2(C)c3nc(-c4ccnc5c(F)cccc45)nc(OC4CCCC4)c3CC[C@H]12 [T121] | 390 | 36
C[C@H]1C(=O)C(C#N)=C[C@@]2(C)c3nc(-c4cccc5ncccc45)nc(-c4ccccc4F)c3CC[C@H]12 [T84] | 321 | 36
C[C@H]1C(=O)C(C#N)=C[C@@]2(C)c3nc(-c4ccnc(CCC(=O)N(C)C)c4)nc(-c4ccccc4F)c3CC[C@H]12 [T152] | 323 | 46
CC(=O)NCCc1cc(-c2nc(-c3ccccc3F)c3c(n2)[C@]2(C)C=C(C#N)C(=O)[C@H](C)[C@H]2CC3)ccn1 [T178] | 444 | 130
CC(C)c1cc(-c2nc(-c3ccccc3F)c3c(n2)[C@]2(C)C=C(C#N)C(=O)[C@H](C)[C@H]2CC3)c2ccccc2n1 [T123] | 371 | 20
CC(=O)OCc1cc(-c2nc(-c3ccccc3F)c3c(n2)[C@]2(C)C=C(C#N)C(=O)[C@H](C)[C@H]2CC3)c2ccccc2n1 [T117] | 232 | 58
CCOC(=O)CCc1cc(-c2nc(-c3ccccc3F)c3c(n2)[C@]2(C)C=C(C#N)C(=O)[C@H](C)[C@H]2CC3)ccn1 [T151] | 1111 | 54
Cc1cc(-c2nc(-c3ccccc3F)c3c(n2)[C@]2(C)C=C(C#N)C(=O)[C@H](C)[C@H]2CC3)c2cccc(F)c2n1 [T63] | 259 | 21
Cc1nc(C)c(-c2nc(-c3ccccc3F)c3c(n2)[C@]2(C)C=C(C#N)C(=O)[C@H](C)[C@H]2CC3)s1 [T70] | 391 | 61

SMILES | HRF2 ARE 2× [1] [nM] | IC50 [2] [nM]
CC1(C)C(=O)C(C#N)=C[C@@]2(C)c3nc(-c4ccnc5c(F)cccc45)nc(-c4ccccc4F)c3CC[C@H]12 [T127] | 343 | 36
CC(=O)N1CCC(c2nc(-c3ccccc3)c3c(n2)[C@]2(C)C=C(C#N)C(=O)[C@H](C)[C@H]2CC3)CC1 [T46] | 735 | 177
C[C@H]1C(=O)C(C#N)=C[C@@]2(C)c3nc(-c4ccnc(N5CCOCC5)c4)nc(-c4ccccc4F)c3CC[C@H]12 [T64] | 425 | 35
CC(C)c1cccc(-c2nc(-c3ccnc4ccccc34)nc3c2CC[C@@H]2[C@@H](C)C(=O)C(C#N)=C[C@@]32C)c1 [T160] | 418 | 22
C[C@H]1C(=O)C(C#N)=C[C@@]2(C)c3nc(-c4ccnc5ccccc45)nc(OC4CCCC4)c3CC[C@H]12 [T97] | 330 | 35
C[C@H]1C(=O)C(C#N)=C[C@@]2(C)c3nc(-c4ccnc5ccccc45)nc(-c4cc5ccccc5o4)c3CC[C@H]12 [T103] | 277 | 38
Cc1cc(-c2nc(-c3ccccc3)c3c(n2)[C@]2(C)C=C(C#N)C(=O)[C@H](C)[C@H]2CC3)ccn1 [T43] | 278 | 39
C[C@H]1C(=O)C(C#N)=C[C@@]2(C)c3nc(-c4ccnc(CS(C)(=O)=O)c4)nc(-c4ccccc4F)c3CC[C@H]12 [T143] | 538 | 94
C[C@H]1C(=O)C(C#N)=C[C@@]2(C)c3nc(-c4nccc5ccccc45)nc(-c4ccccc4F)c3CC[C@H]12 [T75] | 552 | 42
Cc1nc(-c2nc(-c3ccnc4ccccc34)nc3c2CC[C@@H]2[C@@H](C)C(=O)C(C#N)=C[C@@]32C)no1 [T106] | 139 | 173
CCC[C@H]1C(=O)C(C#N)=C[C@@]2(CCC)c3nc(-c4ccnc(C5CC5)c4)nc(-c4ccccc4F)c3CC[C@H]12 [T168] | 1239 | 32
C[C@H]1C(=O)C(C#N)=C[C@@]2(C)c3nc(-c4ncnc5ccccc45)nc(-c4cccc(F)c4)c3CC[C@H]12 [T113] | 734 | 48
C[C@H]1C(=O)C(C#N)=C[C@@]2(C)c3nc(-c4ncnc5ccccc45)nc(-c4ccc(F)cc4)c3CC[C@H]12 [T114] | 484 | 46
C[C@H]1C(=O)C(C#N)=C[C@@]2(C)c3nc(-c4ccnc(-c5ccccc5)c4)nc(-c4ccccc4F)c3CC[C@H]12 [T65] | 463 | 29
Cc1cc(-c2nc(OC3CCCC3)c3c(n2)[C@]2(C)C=C(C#N)C(=O)[C@H](C)[C@H]2CC3)c2ccccc2n1 [T111] | 317 | 19
C[C@H]1C(=O)C(C#N)=C[C@@]2(C)c3nc(-c4ccnc5ccccc45)nc(-c4ccc(C(=O)N(C)Cc5ccccc5)cc4)c3CC[C@H]12 [T101] | 295 | 200
COc1nc(Nc2ccncc2)nc2c1CC[C@@H]1[C@@H](C)C(=O)C(C#N)=C[C@@]21C [T8] | 534 | 185
CC(C)CC[C@@]12C=C(C#N)C(=O)C[C@H]1CCc1c(-c3ccccc3F)nc(-c3ccnc4ccccc34)nc12 [T164] | 1059 | 352
Cc1cncc(-c2nc(-c3ccccc3F)c3c(n2)[C@]2(C)C=C(C#N)C(=O)[C@H](C)[C@H]2CC3)c1 [T58] | 155 | 69
C[C@H]1C(=O)C(C#N)=C[C@@]2(C)c3nc(-c4ccncc4-c4ccccc4)nc(-c4ccccc4F)c3CC[C@H]12 [T179] | 649 | 27
CC[C@@]1(C)C(=O)C(C#N)=C[C@@]2(C)c3nc(-c4ccnc5ccccc45)nc(-c4ccccc4F)c3CC[C@H]12 [T126] | 280 | 36
